Patent US20230085307A1, “PYRIDAZINONE COMPOUND AND HERBICIDE” (NISSAN CHEMICAL CORPORATION, priority 2019, published 2023)

Experiments:
windgrass [1] = experiment: Test Example 4: herbicidal effect by soil treatment (Table 19, symbol L); format: in vivo, windgrass (Apera spica-venti); settings: amount of applied herbicide 320 g/ha
Procedure, shortened: (§1)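 Applied as a water-diluted emulsion, the compound was sprayed onto soil covering newly sown seeds. Evaluation came three weeks after application, in a greenhouse held at 25° C. to 30° C.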

velvetleaf [2] = experiment: Test Example 5: herbicidal effect by foliage application, plastic box (Table 20, symbol M); format: in vivo, velvetleaf (Abutilon theophrasti); settings: foliage application, 320 g/ha, three weeks after application
Procedure, shortened: (§2)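 Sow seeds spot-wise in sterilized diluvial soil; cover with ~1.5 cm soil. Grow 14 days in greenhouse, 25° C. to 30° C. Spray foliage with emulsion diluted to predetermined amount. Rate effect after 3 weeks.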

blackgrass [3] = experiment: Test Example 5: herbicidal effect by foliage application, plastic box (Table 20, symbol J); format: in vivo, blackgrass (Alopecurus myosuroides); settings: foliage application, 320 g/ha, three weeks after application
Procedure, shortened: as §2

barnyard grass [4] = experiment: Test Example 4: herbicidal effect by soil treatment (Table 19, symbol H); format: in vivo, barnyard grass (Echinochloa crus-galli); settings: amount of applied herbicide 320 g/ha
Procedure, shortened: as §1

chickweed [5] = experiment: Test Example 5: herbicidal effect by foliage application, plastic box (Table 20, symbol P); format: in vivo, common chickweed (Stellaria media); settings: foliage application, 320 g/ha, three weeks after application
Procedure, shortened: as §2

barnyard grass [6] = experiment: Test Example 5: herbicidal effect by foliage application, plastic box (Table 20, symbol H); format: in vivo, barnyard grass (Echinochloa crus-galli); settings: foliage application, 320 g/ha, three weeks after application
Procedure, shortened: as §2

redroot pigweed [7] = experiment: Test Example 4: herbicidal effect by soil treatment (Table 19, symbol N); format: in vivo, redroot pigweed (Amaranthus retroflexus); settings: amount of applied herbicide 320 g/ha
Procedure, shortened: as §1

oval-leafed pondweed = experiment: Test Example 1: herbicidal activity, application before weed generation under submerged conditions (Table 16, symbol C); format: in vivo, oval-leafed pondweed (Monochoria vaginalis); settings: amount of applied herbicide 320 g/ha
Procedure, shortened: (§3)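 Submerged Wagner pots (alluvial soil, 4 cm water) sown with weed seeds and planted with 2.5-leaf rice seedlings; emulsifiable concentrate diluted in water applied to water surface on sowing day. Held in greenhouse at 25-30 °C; injury scored 0-5 by herbicidal rate after three weeks.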

barnyard grass [8] = experiment: Test Example 3: herbicidal effect by foliage application, Wagner pot (Table 18, symbol H); format: in vivo, barnyard grass (Echinochloa crus-galli); settings: 320 g/ha
Procedure, shortened: (§4)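 Plants were sown in alluvial soil held under 0.1–0.5 cm standing water and grown 14 days in a greenhouse at 25–30 °C. An emulsifiable formulation, water-diluted to the set dose, was then sprayed onto the foliage, and effects were scored three weeks later using previously defined criteria.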

rice flat sedge = experiment: Test Example 3: herbicidal effect by foliage application, Wagner pot (Table 18, symbol E); format: in vivo, rice flat sedge (Cyperus iria); settings: 320 g/ha
Procedure, shortened: as §4

blackgrass [9] = experiment: Test Example 4: herbicidal effect by soil treatment (Table 19, symbol J); format: in vivo, blackgrass (Alopecurus myosuroides); settings: amount of applied herbicide 320 g/ha
Procedure, shortened: as §1

chickweed [10] = experiment: Test Example 4: herbicidal effect by soil treatment (Table 19, symbol P); format: in vivo, common chickweed (Stellaria media); settings: amount of applied herbicide 320 g/ha
Procedure, shortened: as §1

redroot pigweed [11] = experiment: Test Example 5: herbicidal effect by foliage application, plastic box (Table 20, symbol N); format: in vivo, redroot pigweed (Amaranthus retroflexus); settings: foliage application, 320 g/ha, three weeks after application
Procedure, shortened: as §2

Chinese sprangletop = experiment: Test Example 3: herbicidal effect by foliage application, Wagner pot (Table 18, symbol D); format: in vivo, chinese sprangletop (Leptochloa chinensis); settings: 320 g/ha
Procedure, shortened: as §4

late watergrass = experiment: Test Example 1: herbicidal activity, application before weed generation under submerged conditions (Table 16, symbol A); format: in vivo, late watergrass (Echinochloa oryzicola); settings: amount of applied herbicide 320 g/ha
Procedure, shortened: as §3

wild oat [12] = experiment: Test Example 4: herbicidal effect by soil treatment (Table 19, symbol I); format: in vivo, wild oat (Avena fatua); settings: amount of applied herbicide 320 g/ha
Procedure, shortened: as §1

Japanese bulrush = experiment: Test Example 1: herbicidal activity, application before weed generation under submerged conditions (Table 16, symbol B); format: in vivo, Japanese bulrush (Schoenoplectus juncoides); settings: amount of applied herbicide 320 g/ha
Procedure, shortened: as §3

lambsquarters [13] = experiment: Test Example 5: herbicidal effect by foliage application, plastic box (Table 20, symbol O); format: in vivo, lambsquarters (Chenopodium album); settings: foliage application, 320 g/ha, three weeks after application
Procedure, shortened: as §2

wild oat [14] = experiment: Test Example 5: herbicidal effect by foliage application, plastic box (Table 20, symbol I); format: in vivo, wild oat (Avena fatua); settings: foliage application, 320 g/ha, three weeks after application
Procedure, shortened: as §2

Italian ryegrass [15] = experiment: Test Example 5: herbicidal effect by foliage application, plastic box (Table 20, symbol K); format: in vivo, Italian ryegrass (Lolium multiflorum); settings: foliage application, 320 g/ha, three weeks after application
Procedure, shortened: as §2

southern crabgrass [16] = experiment: Test Example 5: herbicidal effect by foliage application, plastic box (Table 20, symbol F); format: in vivo, southern crabgrass (Digitaria ciliaris); settings: foliage application, 320 g/ha, three weeks after application
Procedure, shortened: as §2

windgrass [17] = experiment: Test Example 5: herbicidal effect by foliage application, plastic box (Table 20, symbol L); format: in vivo, windgrass (Apera spica-venti); settings: foliage application, 320 g/ha, three weeks after application
Procedure, shortened: as §2

persian speedwell [18] = experiment: Test Example 4: herbicidal effect by soil treatment (Table 19, symbol R); format: in vivo, Persian speedwell (Veronica persica); settings: amount of applied herbicide 320 g/ha
Procedure, shortened: as §1

Italian ryegrass [19] = experiment: Test Example 4: herbicidal effect by soil treatment (Table 19, symbol K); format: in vivo, Italian ryegrass (Lolium multiflorum); settings: amount of applied herbicide 320 g/ha
Procedure, shortened: as §1

persian speedwell [20] = experiment: Test Example 5: herbicidal effect by foliage application, plastic box (Table 20, symbol R); format: in vivo, Persian speedwell (Veronica persica); settings: foliage application, 320 g/ha, three weeks after application
Procedure, shortened: as §2

southern crabgrass [21] = experiment: Test Example 4: herbicidal effect by soil treatment (Table 19, symbol F); format: in vivo, southern crabgrass (Digitaria ciliaris); settings: amount of applied herbicide 320 g/ha
Procedure, shortened: as §1

velvetleaf [22] = experiment: Test Example 4: herbicidal effect by soil treatment (Table 19, symbol M); format: in vivo, velvetleaf (Abutilon theophrasti); settings: amount of applied herbicide 320 g/ha
Procedure, shortened: as §1

lambsquarters [23] = experiment: Test Example 4: herbicidal effect by soil treatment (Table 19, symbol O); format: in vivo, lambsquarters (Chenopodium album); settings: amount of applied herbicide 320 g/ha
Procedure, shortened: as §1

green foxtail [24] = experiment: Test Example 4: herbicidal effect by soil treatment (Table 19, symbol G); format: in vivo, green foxtail (Setaria viridis); settings: amount of applied herbicide 320 g/ha
Procedure, shortened: as §1

green foxtail [25] = experiment: Test Example 5: herbicidal effect by foliage application, plastic box (Table 20, symbol G); format: in vivo, green foxtail (Setaria viridis); settings: foliage application, 320 g/ha, three weeks after application
Procedure, shortened: as §2

With `Cc1nn(C)c(=O)c(-c2c(-c3ccc(OC(C)C)cc3)sc3cc(Cl)ccc23)c1O` [3-041] the “L: windgrass, herbicidal effect grade” value (windgrass [1]) was 0 (Herbicidal rate of 5% or less (almost no effect)), the “M: velvetleaf, herbicidal effect grade” value (velvetleaf [2]) was 0 (Herbicidal rate of 5% or less (almost no effect)) and the “J: blackgrass, herbicidal effect grade” value (blackgrass [3]) was 0 (Herbicidal rate of 5% or less (almost no effect)). For the same compound, the “H: barnyard grass, herbicidal effect grade” value (barnyard grass [4]) was 0 (Herbicidal rate of 5% or less (almost no effect)), the “P: chickweed, herbicidal effect grade” value (chickweed [5]) was 3 (Herbicidal rate of 40% or more and less than 70%) and the “H: barnyard grass, herbicidal effect grade” value (barnyard grass [6]) was 0 (Herbicidal rate of 5% or less (almost no effect)). The “N: redroot pigweed, herbicidal effect grade” value (redroot pigweed [7]) was 0 (Herbicidal rate of 5% or less (almost no effect)), the “Herbicidal effect, C: oval-leafed pondweed” value (oval-leafed pondweed) was 0 (Herbicidal rate of 5% or less (almost no effect)) and the “herbicidal effect on barnyard grass (H)” value (barnyard grass [8]) was 2 (Herbicidal rate of 20% or more and less than 40%). For the same compound, the “herbicidal effect on rice flat sedge (E)” value (rice flat sedge) was 1 (Herbicidal rate of 5% or more and less than 20%), the “J: blackgrass, herbicidal effect grade” value (blackgrass [9]) was 0 (Herbicidal rate of 5% or less (almost no effect)) and the “P: chickweed, herbicidal effect grade” value (chickweed [10]) was 1 (Herbicidal rate of 5% or more and less than 20%). For the same compound, the “N: redroot pigweed, herbicidal effect grade” value (redroot pigweed [11]) was 2 (Herbicidal rate of 20% or more and less than 40%), the “herbicidal effect on Chinese sprangletop (D)” value (Chinese sprangletop) was 0 (Herbicidal rate of 5% or less (almost no effect)) and the “Herbicidal effect, A: late watergrass” value (late watergrass) was 2 (Herbicidal rate of 20% or more and less than 40%). For the same compound, the “I: wild oat, herbicidal effect grade” value (wild oat [12]) was 0 (Herbicidal rate of 5% or less (almost no effect)), the “Herbicidal effect, B: Japanese bulrush” value (Japanese bulrush) was 0 (Herbicidal rate of 5% or less (almost no effect)) and the “O: lambsquarters, herbicidal effect grade” value (lambsquarters [13]) was 1 (Herbicidal rate of 5% or more and less than 20%). The “I: wild oat, herbicidal effect grade” value (wild oat [14]) was 0 (Herbicidal rate of 5% or less (almost no effect)), the “K: Italian ryegrass, herbicidal effect grade” value (Italian ryegrass [15]) was 0 (Herbicidal rate of 5% or less (almost no effect)) and the “F: southern crabgrass, herbicidal effect grade” value (southern crabgrass [16]) was 0 (Herbicidal rate of 5% or less (almost no effect)). The “L: windgrass, herbicidal effect grade” value (windgrass [17]) was 0 (Herbicidal rate of 5% or less (almost no effect)), the “R: persian speedwell, herbicidal effect grade” value (persian speedwell [18]) was 2 (Herbicidal rate of 20% or more and less than 40%) and the “K: Italian ryegrass, herbicidal effect grade” value (Italian ryegrass [19]) was 0 (Herbicidal rate of 5% or less (almost no effect)). For the same compound, the “R: persian speedwell, herbicidal effect grade” value (persian speedwell [20]) was 5 (Herbicidal rate of 90% or more (almost completely withered)), the “F: southern crabgrass, herbicidal effect grade” value (southern crabgrass [21]) was 0 (Herbicidal rate of 5% or less (almost no effect)) and the “M: velvetleaf, herbicidal effect grade” value (velvetleaf [22]) was 0 (Herbicidal rate of 5% or less (almost no effect)). For the same compound, the “O: lambsquarters, herbicidal effect grade” value (lambsquarters [23]) was 0 (Herbicidal rate of 5% or less (almost no effect)), the “G: green foxtail, herbicidal effect grade” value (green foxtail [24]) was 0 (Herbicidal rate of 5% or less (almost no effect)) and the “G: green foxtail, herbicidal effect grade” value (green foxtail [25]) was 0 (Herbicidal rate of 5% or less (almost no effect)).
